# Experimental data reported in patent US20260217646A1, “SPERMINE DERIVATIVE AND THERAPEUTIC USE THEREOF FOR DISEASES” (Institute of Basic Medical Sciences, Chinese Academy of …, priority 2022, published 2026).
# How the values were obtained:
# [1] = tested on: Human T-lymphocytic leukemia Jurkat cells (IL-2 secretion); experiment: IL-2 ELISA in PMA/ionomycin-activated Jurkat cells; format: cell-based; conditions: 10 μM SD1 pretreatment 3 hours; PMA 50 ng/ml and ionomycin for 24 hours; ELISA (FIG. 4A)
# Procedure: Human T-lymphocytic leukemia Jurkat cells were cultured in RPMI1640 medium containing 10% FBS. The cells were pretreated with SD1 at a dose of 10 μM for 3 hours. For the control group cells (at a dose of 0), an equal volume of DMSO was added to the medium. Subsequently, the cells were continued to be stimulated with phorbol ester (PMA, 50 ng/ml) and ionomycin ([…]) for 24 hours. The cell culture supernatant was collected, and the level of IL-2 was detected using enzyme linked immunosorbent assay (ELISA) (FIG. 4A).
# NFAT = experiment: Jurkat-Lucia NFAT reporter gene assay; format: cell-based, human; conditions: Jurkat-Lucia NFAT cells; 10 μM SD1 pretreatment 3 hours; PMA 50 ng/ml and ionomycin 300 ng/ml for 24 hours (FIG. 4B)
# Procedure: Jurkat-Lucia NFAT reporter cell line was purchased from invivogen and cultured in RPMI1640 medium containing 10% FBS. The cells were pretreated with 10 μM SD1 for 3 hours. For the control group cells (at a dose of 0), an equal volume of DMSO was added to the medium. Subsequently, PMA (50 ng/ml) and ionomycin (300 ng/ml) were used to stimulate for 24 hours. The cell culture supernatant was obtained. Meanwhile, the luciferase substrate powder was dissolved in 25 ml of deionized water under dark conditions, aliquoted and stored at −80° C. for the preparation of the luciferase substrate. 20 μl of the culture supernatant was transferred to a Luciferase specific 96-well ELISA plate, and detected using Thermo VARIOSKAN FLASH microplate-reader (FIG. 4B).
# [2] = tested on: interferon-stimulated genes (ISGs) Ifit1 and Mx1; experiment: qPCR of interferon-stimulated gene mRNAs in mouse primary peritoneal macrophages after mIFN-β stimulation; format: cell-based; conditions: 10 μM SD1 pretreatment 3 hours, mIFN-β 500 μg/ml for 3 hours, qPCR (FIG. 1B)
# Procedure: 2 ml of 3% mercaptoacetate (dissolved in double distilled water at a ratio in % by m/v, and then subjected to high-pressure sterilization treatment) was injected into C57BL/6 mice (6-8 weeks old, male) intraperitoneally. After 3 days, mouse primary peritoneal macrophages (PMs) were isolated from the C57BL/6 mice and cultured in endotoxin-free high-glucose DMEM medium containing 10% FBS.
# The next day, the medium was replaced by fresh complete medium, and the cells were pretreated with 10 μM SD1 for 3 hours. For the control group cells (at a dose of 0), an equal volume of DMSO was added to the medium. Afterwards, the cells were stimulated with mIFN-β (at a dose of 500 μg/ml) for 3 hours, and RNAs were subsequently extracted for reverse transcription. The contents of mRNAs (including Ifit1 and Mx1) of interferon-stimulated genes (ISGs) were detected and analyzed by fluorescence quantitative PCR (qPCR) method using commercial primers and conditions recommended by manufacturers (FIG. 1B).
# [3] = tested on: JAK-STAT signaling pathway (IL-2 mediated); experiment: Western blot of signaling pathway activation in mouse spleen cells stimulated with IL-2; format: cell-based; conditions: 10 μM SD1 pretreatment 3 hours, IL-2 10 ng/ml for different time periods, Western blot (FIG. 2B)
# Procedure: Mouse spleen single cells were isolated from spleens of the male mice 6-8 weeks old, and the cells freshly obtained were cultured in RPMI1640 medium containing 10% FBS, non-essential amino acids, and β-mercaptoethanol. The cells were pretreated with 10 μM SD1 for 3 hours. For the control group cells (at a dose of 0), an equal volume of DMSO was added to the medium. Subsequently, the cells were stimulated with 10 ng/ml recombinant mouse interleukin-2 (IL-2) for different time periods. The cells were collected, total cellular proteins were extracted, and the activation of the type I interferon signaling pathway was detected using Western blot (FIG. 2B).
# [4] = tested on: ISG promoter in RAW264.7 cells; experiment: ISG promoter-reporter (luciferase) assay in RAW264.7 cells under mIFN-β stimulation; format: cell-based, mouse; conditions: 10 μM SD1 pretreatment 3 hours; mIFN-β 1 ng/ml for 7 hours; luciferase in supernatant (FIG. 1A)
# Procedure: The RAW264.7 cell line with ISG promoter-reporter gene was purchased from Invivogen and cultured in DMEM containing 10% fetal bovine serum (FBS). The cells were pretreated with 10 μM SD1 for 3 hours. A concentrated solution of the above-mentioned SD1 was freshly formulated in DMSO at a concentration of 20 mM before each use, and subsequently diluted as needed. Afterwards, the cells were stimulated with recombinant mouse interferon-beta (mIFN-β) at a dose of 1 ng/ml for 7 hours, and the cell culture supernatant was obtained. Meanwhile, the luciferase substrate powder was dissolved in 25 ml of deionized water under dark conditions, aliquoted, and stored at −80° C. for preparation of the luciferase substrate. 20 μl of the culture supernatant was transferred to a Luciferase specific 96-well ELISA plate, and detected using Thermo VARIOSKAN FLASH microplate-reader (FIG. 1A).
# [5] = tested on: JAK-STAT signaling pathway (IFN-β mediated); experiment: Western blot of type I interferon signaling pathway activation in mouse primary peritoneal macrophages stimulated with mIFN-β; format: cell-based; conditions: 10 μM SD1 pretreatment 3 hours, mIFN-β 500 μg/ml for different time periods, Western blot (FIG. 2A)
# Procedure: PMs were obtained using the method as described in Example 2 and cultured in endotoxin-free high-glucose DMEM medium containing 10% FBS. The cells were pretreated with 10 μM SD1 for 3 hours. For the control group cells (at a dose of 0), an equal volume of DMSO was added to the medium. Afterwards, the cells were stimulated with mIFN-β (at a dose of 500 μg/ml) for different time periods. Subsequently, total cellular proteins were extracted, and the activation of the type I interferon signaling pathway was detected using Western blot (FIG. 2A).
# [6] = tested on: ISG genes in peripheral blood cells of SLE model mice; experiment: ISG expression in peripheral blood cells of pristane-induced SLE model mice; format: in vivo, mouse; conditions: C57 female mice; SD1 10 mg/kg intraperitoneal once a day for 5 days before pristane; blood on days 4 and 6 (FIG. 3A to 3C)
# Source text: Lupus-like symptoms similar to those in human patients were induced in mice by the hydrocarbon compound pristane (also referred as norphytane, 2,6,10,14-tetramethylpentadecane) (Zhuang et al., Animal Models of Interferon Signature Positive Lupus. Front Immunol. 2015. 6: p. 291; Nacionales, D. C et al. (2006). Type I interferon production by tertiary lymphoid tissue developing in response to 2,6,10,14-tetramethyl-pentadecane (pristane). The American journal of pathology 168, 1227-1240; Reeves, W. H et al. (2009). Induction of autoimmunity by pristane and other naturally occurring hydrocarbons. Trends Immunol. 30, 455-464). […] It is a recognized model that is able to simulate the overexpression of type I interferon in SLE patients, which can aid in elucidating the pathogenesis of SLE and finding therapeutic targets.
# Firstly, C57 female mice were pretreated by intraperitoneal injection of PBS and SD1 (10 mg/kg, once a day, for 5 consecutive days). Subsequently, SLE mice were induced by intraperitoneal injection of pristane (500 μl/mouse). On days 4 and 6 after the injection of pristane, blood was collected from the eye-fundus vascular plexus, and total RNA was obtained from the peripheral blood by using Trizol to detect the effect of spermine on the early type I interferon effect of pristane-induced mice.
smiles,measurement,setting,value
CC(C(=O)NCCCNCCCCNCCCNC(=O)C(C)(c1ccccc1)c1ccccc1)(c1ccccc1)c1ccccc1 [SD1],IL-2 secretion level of activated Jurkat cells,[1],effectively inhibit
same,transcriptional activity of NFAT (reporter gene activity),NFAT,effectively inhibits
same,expression of Ifit1 mRNA downstream of type I interferon,[2],reduce
same,expression of Mx1 mRNA downstream of type I interferon,[2],reduce
same,"activation of the JAK-STAT signaling pathway mediated by IL-2 (levels of p-JAK1, p-TYK2, p-STAT1/2)",[3],effectively inhibit
same,activity of ISG promoter in RAW264.7 cells,[4],effectively inhibit
same,"activation of the JAK-STAT signaling pathway mediated by IFN-β (levels of p-JAK1, p-TYK2, p-STAT1/2)",[5],effectively inhibit
same,"ISG expression (Ifit1, Isg15, Rsad2) in peripheral blood cells of SLE model mice",[6],inhibit
